Measurements from patent US6544989B2, “Benzazoles: benzoxazole, benzthiazole and benzimidazole derivatives” (Syngenta Limited, priority 1998, dated 2003).

test system: Septoria nodorum; test: Fungicidal test, Septoria nodorum (LEPTNO) on wheat, PRCO; type: in vivo; conditions: METHOD 2 (unbanded)

First: CCSc1nc2cc(CC(=O)Nc3snc(C)c3Cl)ccc2o1 [221(A3)]
Second: Cc1nsc(NC(=O)Cc2ccc3oc(SC(C)(C)C)nc3c2)c1Cl [224(A3)]
The “LEPTNO 1 d Prot/Foir PRCO” value of the first is higher: 20 for the first, 16 for the second.

Compared with `Cc1nsc(NC(=O)Cc2ccc3oc(SC(C)C)nc3c2)c1Cl` [223(A3)], `Cc1nsc(NC(=O)Cc2ccc3oc(-c4cc(Cl)cc(Cl)c4)nc3c2)c1Cl` [261(A3)] is lower in “LEPTNO 1 d Prot/Foir PRCO” value: 12 for the first, −7 for the second.

`Cc1nsc(NC(=O)Cc2ccc3oc(CCc4ccccc4)nc3c2)c1Cl` [247(A3)] was tested, and the “LEPTNO 1 d Prot/Foir PRCO” value was 13.

test system: Erysiphe graminis f.sp. tritici; test: Fungicidal test, Erysiphe graminis f.sp. tritici (ERYSGT) on wheat, PRCO; type: in vivo; conditions: 1 d Prot/Foir; METHOD 2 (unbanded)

First: CCSc1nc2cc(CC(=O)Nc3snc(C)c3Cl)ccc2o1 [221(A3)]
Second: Cc1nsc(NC(=O)Cc2ccc3oc(SC(C)(C)C)nc3c2)c1Cl [224(A3)]
The “ERYSGT 1 d Prot/Foir PRCO” value of the first is lower: 50 for the first, 88 for the second.

Going from `Cc1nsc(NC(=O)Cc2ccc3oc(SC(C)C)nc3c2)c1Cl` [223(A3)] to `Cc1nsc(NC(=O)Cc2ccc3oc(-c4cc(Cl)cc(Cl)c4)nc3c2)c1Cl` [261(A3)], the “ERYSGT 1 d Prot/Foir PRCO” value falls from 73 to 19.

In the case of `Cc1nsc(NC(=O)Cc2ccc3oc(CCc4ccccc4)nc3c2)c1Cl` [247(A3)], the “ERYSGT 1 d Prot/Foir PRCO” value is reported as 61.

test system: Plasmopara viticola; test: Synergy test of two-compound mixtures, Plasmopara viticola (PLASVI) on vines, observed and expected PRCO; type: in vivo; conditions: Disease on untreated: 95%; fenamidone 0.2 mg/l alone

For `CSC1=N[C@@](C)(c2ccccc2)C(=O)N1Nc1ccccc1` [fenamidone], the “% disease control Observed” value was 65%.

test system: Rhizoctonia solani; test: Fungicidal test, Rhizoctonia solani (RHIZSO) on rice, PRCO; type: in vivo; conditions: METHOD 2 (unbanded)

`CCSc1nc2cc(CC(=O)Nc3snc(C)c3Cl)ccc2o1` [221(A3)] and `Cc1nsc(NC(=O)Cc2ccc3oc(SC(C)(C)C)nc3c2)c1Cl` [224(A3)] are the same in “RHIZSO 1 d Prot/Foir PRCO” value: 0 for the first, 0 for the second.

`Cc1nsc(NC(=O)Cc2ccc3oc(SC(C)C)nc3c2)c1Cl` [223(A3)] and `Cc1nsc(NC(=O)Cc2ccc3oc(-c4cc(Cl)cc(Cl)c4)nc3c2)c1Cl` [261(A3)] are the same in “RHIZSO 1 d Prot/Foir PRCO” value: 0 for the first, 0 for the second.

For `Cc1nsc(NC(=O)Cc2ccc3oc(CCc4ccccc4)nc3c2)c1Cl` [247(A3)], the “RHIZSO 1 d Prot/Foir PRCO” value was 0.

test system: Puccinia recondita; test: Fungicidal test, Puccinia recondita (PUCCRT) on wheat, PRCO; type: in vivo; conditions: METHOD 2 (unbanded)

Going from `CCSc1nc2cc(CC(=O)Nc3snc(C)c3Cl)ccc2o1` [221(A3)] to `Cc1nsc(NC(=O)Cc2ccc3oc(SC(C)(C)C)nc3c2)c1Cl` [224(A3)], the “PUCCRT 1 d Prot/Foir PRCO” value falls from 99 to 98.

Going from `Cc1nsc(NC(=O)Cc2ccc3oc(SC(C)C)nc3c2)c1Cl` [223(A3)] to `Cc1nsc(NC(=O)Cc2ccc3oc(-c4cc(Cl)cc(Cl)c4)nc3c2)c1Cl` [261(A3)], the “PUCCRT 1 d Prot/Foir PRCO” value falls from 99 to 3.

In the case of `Cc1nsc(NC(=O)Cc2ccc3oc(CCc4ccccc4)nc3c2)c1Cl` [247(A3)], the “PUCCRT 1 d Prot/Foir PRCO” value is reported as 95.

test system: Venturia inaequalis; test: Fungicidal test, Venturia inaequalis (VENTIN) on apples, PRCO; type: in vivo; conditions: METHOD 2 (unbanded)

First: CCSc1nc2cc(CC(=O)Nc3snc(C)c3Cl)ccc2o1 [221(A3)]
Second: Cc1nsc(NC(=O)Cc2ccc3oc(SC(C)(C)C)nc3c2)c1Cl [224(A3)]
The “VENTIN 1 d Prot/Foir PRCO” value of the first is lower: 25 for the first, 60 for the second.

Compared with `Cc1nsc(NC(=O)Cc2ccc3oc(SC(C)C)nc3c2)c1Cl` [223(A3)], `Cc1nsc(NC(=O)Cc2ccc3oc(-c4cc(Cl)cc(Cl)c4)nc3c2)c1Cl` [261(A3)] is lower in “VENTIN 1 d Prot/Foir PRCO” value: 60 for the first, 0 for the second.

In the case of `Cc1nsc(NC(=O)Cc2ccc3oc(CCc4ccccc4)nc3c2)c1Cl` [247(A3)], the “VENTIN 1 d Prot/Foir PRCO” value is reported as −11.

test system: Plasmopara viticola; test: Fungicidal test, Plasmopara viticola (PLASVI) on vines, PRCO; type: in vivo; conditions: METHOD 2 (unbanded)

First: CCSc1nc2cc(CC(=O)Nc3snc(C)c3Cl)ccc2o1 [221(A3)]
Second: Cc1nsc(NC(=O)Cc2ccc3oc(SC(C)(C)C)nc3c2)c1Cl [224(A3)]
The “PLASVI 1 d Prot/Foir PRCO” value of the first is lower: 84 for the first, 99 for the second.

Compared with `Cc1nsc(NC(=O)Cc2ccc3oc(SC(C)C)nc3c2)c1Cl` [223(A3)], `Cc1nsc(NC(=O)Cc2ccc3oc(-c4cc(Cl)cc(Cl)c4)nc3c2)c1Cl` [261(A3)] is lower in “PLASVI 1 d Prot/Foir PRCO” value: 55 for the first, 25 for the second.

With `Cc1nsc(NC(=O)Cc2ccc3oc(CCc4ccccc4)nc3c2)c1Cl` [247(A3)] the “PLASVI 1 d Prot/Foir PRCO” value was 62.

test system: Uncinula necator; test: Fungicidal test, Uncinula necator (UNCINE) on vines, PRCO; type: in vivo; conditions: METHOD 2 (unbanded)

Going from `CCSc1nc2cc(CC(=O)Nc3snc(C)c3Cl)ccc2o1` [221(A3)] to `Cc1nsc(NC(=O)Cc2ccc3oc(SC(C)(C)C)nc3c2)c1Cl` [224(A3)], the “UNCINE 1 d Prot/Foir PRCO” value rises from 23 to 91.

Compared with `Cc1nsc(NC(=O)Cc2ccc3oc(SC(C)C)nc3c2)c1Cl` [223(A3)], `Cc1nsc(NC(=O)Cc2ccc3oc(-c4cc(Cl)cc(Cl)c4)nc3c2)c1Cl` [261(A3)] is lower in “UNCINE 1 d Prot/Foir PRCO” value: 30 for the first, 17 for the second.

With `Cc1nsc(NC(=O)Cc2ccc3oc(CCc4ccccc4)nc3c2)c1Cl` [247(A3)] the “UNCINE 1 d Prot/Foir PRCO” value was 95.

test system: Musca domestica; test: not given; conditions: 500 ppm by weight; knockdown assessed 15 minutes after treatment

In the case of `CCSc1nc2cc(CC(=O)Nc3snc(C)c3Cl)ccc2o1` [221(A3)], the “MUSCDO AC = Musca domestica (knockdown), score” value (from here on “MUSCDO AC = Musca domestica”) is reported as 9 (9 indicates 80-100% mortality).
In the case of `Cc1nsc(NC(=O)Cc2ccc3oc(SC(C)C)nc3c2)c1Cl` [223(A3)], the “MUSCDO AC = Musca domestica” value is reported as 0 (0 indicates less than 40% mortality).
For `Cc1nsc(NC(=O)Cc2ccc3oc(SC(C)(C)C)nc3c2)c1Cl` [224(A3)], the “MUSCDO AC = Musca domestica” value was 0 (0 indicates less than 40% mortality).
In the case of `Cc1nsc(NC(=O)Cc2ccc3oc(CCc4ccccc4)nc3c2)c1Cl` [247(A3)], the “MUSCDO AC = Musca domestica” value is reported as 0 (0 indicates less than 40% mortality).
With `Cc1nsc(NC(=O)Cc2ccc3oc(-c4cc(Cl)cc(Cl)c4)nc3c2)c1Cl` [261(A3)] the “MUSCDO AC = Musca domestica” value was 0 (0 indicates less than 40% mortality).

test system: Phytophthora infestans lycopersici; test: not given; type: in vivo; conditions: METHOD 2 (unbanded)

Going from `CCSc1nc2cc(CC(=O)Nc3snc(C)c3Cl)ccc2o1` [221(A3)] to `Cc1nsc(NC(=O)Cc2ccc3oc(SC(C)(C)C)nc3c2)c1Cl` [224(A3)], the “PHYTIN 1 d Prot/Foir PRCO” value rises from 99 to 100.

Compared with `Cc1nsc(NC(=O)Cc2ccc3oc(SC(C)C)nc3c2)c1Cl` [223(A3)], `Cc1nsc(NC(=O)Cc2ccc3oc(-c4cc(Cl)cc(Cl)c4)nc3c2)c1Cl` [261(A3)] is lower in “PHYTIN 1 d Prot/Foir PRCO” value: 93 for the first, 0 for the second.

In the case of `Cc1nsc(NC(=O)Cc2ccc3oc(CCc4ccccc4)nc3c2)c1Cl` [247(A3)], the “PHYTIN 1 d Prot/Foir PRCO” value is reported as 97.

test system: Pyricularia oryzae; test: not given; type: in vivo; conditions: METHOD 2 (unbanded)

Going from `CCSc1nc2cc(CC(=O)Nc3snc(C)c3Cl)ccc2o1` [221(A3)] to `Cc1nsc(NC(=O)Cc2ccc3oc(SC(C)(C)C)nc3c2)c1Cl` [224(A3)], the “PYRIOR 1 d Prot/Foir PRCO” value falls from 93 to 91.

Compared with `Cc1nsc(NC(=O)Cc2ccc3oc(SC(C)C)nc3c2)c1Cl` [223(A3)], `Cc1nsc(NC(=O)Cc2ccc3oc(-c4cc(Cl)cc(Cl)c4)nc3c2)c1Cl` [261(A3)] is lower in “PYRIOR 1 d Prot/Foir PRCO” value: 63 for the first, 31 for the second.

With `Cc1nsc(NC(=O)Cc2ccc3oc(CCc4ccccc4)nc3c2)c1Cl` [247(A3)] the “PYRIOR 1 d Prot/Foir PRCO” value was 85.

test system: Meloidogyne incognita; test: Nematode test, J2 infective juveniles of Meloidogyne incognita, mortality; conditions: 12.5 ppm; J2 infective juveniles suspended in solution; mortality after three days

In the case of `CCSc1nc2cc(CC(=O)Nc3snc(C)c3Cl)ccc2o1` [221(A3)], the “MELGIN = Meloidogyne incognita, grading of mortality (score)” value (from here on “MELGIN = Meloidogyne incognita, grading”) is reported as 0 (0 indicates less than 40% mortality).
In the case of `Cc1nsc(NC(=O)Cc2ccc3oc(SC(C)C)nc3c2)c1Cl` [223(A3)], the “MELGIN = Meloidogyne incognita, grading” value is reported as 0 (0 indicates less than 40% mortality).
In the case of `Cc1nsc(NC(=O)Cc2ccc3oc(SC(C)(C)C)nc3c2)c1Cl` [224(A3)], the “MELGIN = Meloidogyne incognita, grading” value is reported as 0 (0 indicates less than 40% mortality).
With `Cc1nsc(NC(=O)Cc2ccc3oc(CCc4ccccc4)nc3c2)c1Cl` [247(A3)] the “MELGIN = Meloidogyne incognita, grading” value was 0 (0 indicates less than 40% mortality).
`Cc1nsc(NC(=O)Cc2ccc3oc(-c4cc(Cl)cc(Cl)c4)nc3c2)c1Cl` [261(A3)] was tested, and the “MELGIN = Meloidogyne incognita, grading” value was 0 (0 indicates less than 40% mortality).
